Calls of active or inactive are those of the source. The calls are words filed in the database; no cut-off is given here.

The subject of data set [1] is A673. The data set can be described thus: Cytotoxicity against human A673 cells measured after 72 hrs by MTT assay. The format is functional, cell-based. The following applies: A673, 72 h. (Formazan colour is commonly taken as a measure of viable cells.)
Data set [2] is described as follows: Cytotoxicity against human 6647 cells at 30 uM assessed as cell proliferation rate measured after 72 hrs by MTT assay relative to control. The format is functional.
A short description of data set [3]: AUC (infinity) in CD-1 mouse at 10 mg/kg iv measured by UPLC-MS/MS method. Type of data set: ADME, organism-based. The arrangement: time infinity, route intravenous, dose 10 mg/kg. Particulars: in vivo.
A short description of data set [4]: Half life in CD-1 mouse at 10 mg/kg iv measured by UPLC-MS/MS method. The format is ADME, organism-based. Particulars: in vivo.
Data set [5] in a line: Volume of distribution in CD-1 mouse at 10 mg/kg iv measured by UPLC-MS/MS method. Type of data set: ADME, organism-based. Particulars: in vivo.
A short description of data set [6]: Cmax in CD-1 mouse at 10 mg/kg iv measured by UPLC-MS/MS method. Type of data set: ADME, organism-based. Further details: route intravenous, dose 10 mg/kg. Particulars: in vivo.
Data set [7] concerns the target Aurora kinase A (Homo sapiens) (UniProt O14965). Description: Modulation in AURA protein in human SK-N-MC cell at 1 uM measured after 30 min by Western blot analysis. Type of data set: tissue-based.

Aurora kinase A (Homo sapiens), sequence (O14965 whole entry): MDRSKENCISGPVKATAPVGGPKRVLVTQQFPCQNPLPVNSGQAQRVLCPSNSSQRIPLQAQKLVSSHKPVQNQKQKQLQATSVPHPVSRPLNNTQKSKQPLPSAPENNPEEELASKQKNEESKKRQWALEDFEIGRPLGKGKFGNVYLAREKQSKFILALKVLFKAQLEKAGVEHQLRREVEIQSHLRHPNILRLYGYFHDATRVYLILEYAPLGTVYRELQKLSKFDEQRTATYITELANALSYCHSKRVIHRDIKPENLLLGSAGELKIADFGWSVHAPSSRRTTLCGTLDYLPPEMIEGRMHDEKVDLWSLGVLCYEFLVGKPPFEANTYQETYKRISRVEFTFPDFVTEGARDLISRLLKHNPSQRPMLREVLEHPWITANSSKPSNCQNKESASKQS

Broadly, the IC50 is the concentration that gives 50% inhibition. In general, AUC refers to the area under the concentration-time curve, a measure of exposure. Low readings indicate low exposure, high ones high exposure. The Vd is a proportionality between amount in the body and measured concentration, not a real space. Lower therefore signals little distribution into tissue. Broadly, the Cmax is the highest concentration seen after dosing. In the case of `O=C1Nc2ccc(NC(=O)[C@H](NC(=O)c3cccn(Cc4ccc(F)c(F)c4)c3=O)c3ccccc3)cc2/C1=C/c1cnc[nH]1` (stereo in doubt), in data set [1], the concentration for half-maximal inhibition (IC50) was greater than 30 µM. Besides, the Emax at 30 µM in data set [2] is 84%. Further, the AUC in data set [3] was determined as 5720 ng·h/mL. The t1/2 in data set [4] is 1.5 h. This compound also yielded a Vd in data set [5] of 0.37 L. In data set [6], this compound had a Cmax of 1300 ng/mL. Also, in data set [7], the outcome was inactive.

Source of the values: ChEMBL document CHEMBL5036349, “Development of potent dual PDK1/AurA kinase inhibitors for cancer therapy: Lead-optimization, structural insights, and ADME-Tox profile” (Eur J Med Chem, 2021).
